Measurements taken from ChEMBL document CHEMBL5291721, “A preclinical secondary pharmacology resource illuminates target-adverse drug reaction associations of marketed drugs” (Nat Commun, 2023).

Assays:
Adenosine receptor A1 = molecular target: T1, Adenosine receptor A1 (Homo sapiens, UniProt P30542)
T1 sequence (P30542 whole entry): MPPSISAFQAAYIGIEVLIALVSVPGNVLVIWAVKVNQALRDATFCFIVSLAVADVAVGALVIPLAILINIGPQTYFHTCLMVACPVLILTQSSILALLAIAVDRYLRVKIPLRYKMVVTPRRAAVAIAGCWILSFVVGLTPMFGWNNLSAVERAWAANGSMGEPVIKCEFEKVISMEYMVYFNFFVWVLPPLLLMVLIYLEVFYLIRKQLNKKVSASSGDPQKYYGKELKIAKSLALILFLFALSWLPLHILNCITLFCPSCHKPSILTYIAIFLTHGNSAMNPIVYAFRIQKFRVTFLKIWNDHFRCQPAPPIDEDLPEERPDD

Adenosine receptor A3 = molecular target: T2, Adenosine receptor A3 (Homo sapiens, UniProt P0DMS8)
T2 sequence (P0DMS8 whole entry): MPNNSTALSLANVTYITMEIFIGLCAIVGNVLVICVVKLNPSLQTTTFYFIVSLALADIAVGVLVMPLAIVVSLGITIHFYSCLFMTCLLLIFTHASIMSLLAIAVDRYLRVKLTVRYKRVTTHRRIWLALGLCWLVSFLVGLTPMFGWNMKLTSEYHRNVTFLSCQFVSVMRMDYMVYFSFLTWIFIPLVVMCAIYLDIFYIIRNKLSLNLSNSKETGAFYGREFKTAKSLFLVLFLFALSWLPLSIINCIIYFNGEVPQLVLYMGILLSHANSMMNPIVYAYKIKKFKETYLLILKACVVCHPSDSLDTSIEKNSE

[1] = molecular target: Voltage-dependent L-type calcium channel subunit alpha-1C (Rattus norvegicus, UniProt P22002); type: functional
D(1A) dopamine receptor = D(1A) dopamine receptor (Homo sapiens, UniProt P21728); type: functional, cell-based
[2] = molecular target: Gamma-aminobutyric acid receptor subunit alpha-1 (Rattus norvegicus, UniProt P62813); type: functional
[3] = molecular target: T3, 5-hydroxytryptamine receptor 2C (Homo sapiens, UniProt P28335)
T3 sequence (P28335 whole entry): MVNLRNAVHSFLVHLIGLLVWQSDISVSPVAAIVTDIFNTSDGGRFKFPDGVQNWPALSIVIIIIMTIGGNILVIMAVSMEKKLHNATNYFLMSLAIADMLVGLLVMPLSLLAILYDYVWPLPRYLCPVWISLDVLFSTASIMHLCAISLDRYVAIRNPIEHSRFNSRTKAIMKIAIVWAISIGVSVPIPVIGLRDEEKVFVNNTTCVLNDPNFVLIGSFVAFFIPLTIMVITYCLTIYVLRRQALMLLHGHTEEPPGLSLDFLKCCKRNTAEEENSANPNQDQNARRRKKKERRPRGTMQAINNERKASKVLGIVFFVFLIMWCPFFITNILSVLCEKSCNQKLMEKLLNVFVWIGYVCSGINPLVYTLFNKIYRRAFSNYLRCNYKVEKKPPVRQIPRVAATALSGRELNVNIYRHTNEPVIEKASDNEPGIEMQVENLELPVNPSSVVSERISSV

[4] = molecular target: T4, 5-hydroxytryptamine receptor 3A (Homo sapiens, UniProt P46098); type: functional
T4 sequence (P46098 whole entry): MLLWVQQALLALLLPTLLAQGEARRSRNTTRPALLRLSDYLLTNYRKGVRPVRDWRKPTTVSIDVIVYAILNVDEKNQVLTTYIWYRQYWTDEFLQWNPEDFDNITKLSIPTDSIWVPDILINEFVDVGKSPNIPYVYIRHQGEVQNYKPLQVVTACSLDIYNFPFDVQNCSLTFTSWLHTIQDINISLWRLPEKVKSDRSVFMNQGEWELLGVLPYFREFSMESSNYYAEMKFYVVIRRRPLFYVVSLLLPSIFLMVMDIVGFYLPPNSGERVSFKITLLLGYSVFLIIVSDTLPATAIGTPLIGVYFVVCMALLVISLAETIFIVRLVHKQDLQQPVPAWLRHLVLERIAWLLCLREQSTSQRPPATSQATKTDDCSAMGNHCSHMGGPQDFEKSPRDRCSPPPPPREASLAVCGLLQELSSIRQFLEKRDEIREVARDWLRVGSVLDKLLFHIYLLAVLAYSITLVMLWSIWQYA

[5] = molecular target: Vascular endothelial growth factor receptor 2 (Homo sapiens, UniProt P35968); type: functional
Melanocortin receptor 3 = Melanocortin receptor 3 (Homo sapiens, UniProt P41968)
[6] = molecular target: T5, Neuropeptide Y receptor type 1 (Homo sapiens, UniProt P25929)
T5 sequence (P25929 whole entry): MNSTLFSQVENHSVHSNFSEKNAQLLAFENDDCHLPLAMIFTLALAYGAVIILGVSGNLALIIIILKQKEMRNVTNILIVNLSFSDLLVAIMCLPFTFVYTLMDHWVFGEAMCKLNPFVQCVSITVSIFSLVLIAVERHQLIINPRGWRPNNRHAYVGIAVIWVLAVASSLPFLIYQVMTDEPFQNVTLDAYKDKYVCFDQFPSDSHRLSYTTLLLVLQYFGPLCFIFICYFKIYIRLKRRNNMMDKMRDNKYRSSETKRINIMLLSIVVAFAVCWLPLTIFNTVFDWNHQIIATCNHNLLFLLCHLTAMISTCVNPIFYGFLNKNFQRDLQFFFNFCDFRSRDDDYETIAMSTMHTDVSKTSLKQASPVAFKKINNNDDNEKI

[7] = molecular target: Sodium-dependent serotonin transporter (Homo sapiens, UniProt P31645)
Mu-type opioid receptor = Mu-type opioid receptor (Homo sapiens, UniProt P35372)
Histamine H3 receptor = Histamine H3 receptor (Homo sapiens, UniProt Q9Y5N1)
Also: assay procedure not described here.

Chain of Melanocortin receptor 3 (P41968 whole entry): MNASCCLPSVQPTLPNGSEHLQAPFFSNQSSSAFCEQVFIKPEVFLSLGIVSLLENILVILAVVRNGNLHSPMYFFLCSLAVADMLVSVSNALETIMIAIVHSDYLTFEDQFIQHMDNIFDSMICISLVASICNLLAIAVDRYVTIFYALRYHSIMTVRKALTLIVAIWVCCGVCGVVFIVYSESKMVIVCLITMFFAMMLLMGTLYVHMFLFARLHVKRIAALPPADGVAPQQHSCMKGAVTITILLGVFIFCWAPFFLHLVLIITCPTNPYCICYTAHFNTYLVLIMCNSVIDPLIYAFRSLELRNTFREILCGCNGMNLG
Chain of Sodium-dependent serotonin transporter (P31645 whole entry): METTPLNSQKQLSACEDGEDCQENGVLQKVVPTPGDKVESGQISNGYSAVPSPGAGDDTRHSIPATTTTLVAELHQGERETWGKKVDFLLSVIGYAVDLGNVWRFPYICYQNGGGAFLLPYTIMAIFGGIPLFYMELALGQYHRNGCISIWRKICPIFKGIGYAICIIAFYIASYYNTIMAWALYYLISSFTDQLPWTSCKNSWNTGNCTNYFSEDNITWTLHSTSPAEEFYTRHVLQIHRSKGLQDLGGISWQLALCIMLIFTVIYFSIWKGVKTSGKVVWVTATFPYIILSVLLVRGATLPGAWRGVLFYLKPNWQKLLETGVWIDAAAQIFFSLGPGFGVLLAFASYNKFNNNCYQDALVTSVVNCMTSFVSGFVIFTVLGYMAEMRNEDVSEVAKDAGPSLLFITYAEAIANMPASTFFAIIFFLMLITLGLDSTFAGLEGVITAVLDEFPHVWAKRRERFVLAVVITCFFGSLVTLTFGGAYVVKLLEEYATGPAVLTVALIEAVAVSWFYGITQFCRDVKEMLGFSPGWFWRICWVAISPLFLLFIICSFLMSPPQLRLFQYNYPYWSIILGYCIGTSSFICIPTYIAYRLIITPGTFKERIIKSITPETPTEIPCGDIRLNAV
Chain of D(1A) dopamine receptor (P21728 whole entry): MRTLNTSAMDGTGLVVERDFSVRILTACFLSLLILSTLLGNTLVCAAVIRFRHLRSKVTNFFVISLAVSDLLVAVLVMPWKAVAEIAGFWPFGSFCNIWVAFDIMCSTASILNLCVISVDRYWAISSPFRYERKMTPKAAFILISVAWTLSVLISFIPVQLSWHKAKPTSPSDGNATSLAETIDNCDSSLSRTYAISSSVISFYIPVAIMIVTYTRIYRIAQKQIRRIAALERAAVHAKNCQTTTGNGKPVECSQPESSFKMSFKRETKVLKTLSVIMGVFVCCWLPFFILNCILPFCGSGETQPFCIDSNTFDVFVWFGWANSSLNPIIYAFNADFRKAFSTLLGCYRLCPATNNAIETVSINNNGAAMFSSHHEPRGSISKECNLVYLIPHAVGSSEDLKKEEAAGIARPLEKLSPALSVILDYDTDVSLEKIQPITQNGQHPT
Chain of Vascular endothelial growth factor receptor 2 (P35968 whole entry): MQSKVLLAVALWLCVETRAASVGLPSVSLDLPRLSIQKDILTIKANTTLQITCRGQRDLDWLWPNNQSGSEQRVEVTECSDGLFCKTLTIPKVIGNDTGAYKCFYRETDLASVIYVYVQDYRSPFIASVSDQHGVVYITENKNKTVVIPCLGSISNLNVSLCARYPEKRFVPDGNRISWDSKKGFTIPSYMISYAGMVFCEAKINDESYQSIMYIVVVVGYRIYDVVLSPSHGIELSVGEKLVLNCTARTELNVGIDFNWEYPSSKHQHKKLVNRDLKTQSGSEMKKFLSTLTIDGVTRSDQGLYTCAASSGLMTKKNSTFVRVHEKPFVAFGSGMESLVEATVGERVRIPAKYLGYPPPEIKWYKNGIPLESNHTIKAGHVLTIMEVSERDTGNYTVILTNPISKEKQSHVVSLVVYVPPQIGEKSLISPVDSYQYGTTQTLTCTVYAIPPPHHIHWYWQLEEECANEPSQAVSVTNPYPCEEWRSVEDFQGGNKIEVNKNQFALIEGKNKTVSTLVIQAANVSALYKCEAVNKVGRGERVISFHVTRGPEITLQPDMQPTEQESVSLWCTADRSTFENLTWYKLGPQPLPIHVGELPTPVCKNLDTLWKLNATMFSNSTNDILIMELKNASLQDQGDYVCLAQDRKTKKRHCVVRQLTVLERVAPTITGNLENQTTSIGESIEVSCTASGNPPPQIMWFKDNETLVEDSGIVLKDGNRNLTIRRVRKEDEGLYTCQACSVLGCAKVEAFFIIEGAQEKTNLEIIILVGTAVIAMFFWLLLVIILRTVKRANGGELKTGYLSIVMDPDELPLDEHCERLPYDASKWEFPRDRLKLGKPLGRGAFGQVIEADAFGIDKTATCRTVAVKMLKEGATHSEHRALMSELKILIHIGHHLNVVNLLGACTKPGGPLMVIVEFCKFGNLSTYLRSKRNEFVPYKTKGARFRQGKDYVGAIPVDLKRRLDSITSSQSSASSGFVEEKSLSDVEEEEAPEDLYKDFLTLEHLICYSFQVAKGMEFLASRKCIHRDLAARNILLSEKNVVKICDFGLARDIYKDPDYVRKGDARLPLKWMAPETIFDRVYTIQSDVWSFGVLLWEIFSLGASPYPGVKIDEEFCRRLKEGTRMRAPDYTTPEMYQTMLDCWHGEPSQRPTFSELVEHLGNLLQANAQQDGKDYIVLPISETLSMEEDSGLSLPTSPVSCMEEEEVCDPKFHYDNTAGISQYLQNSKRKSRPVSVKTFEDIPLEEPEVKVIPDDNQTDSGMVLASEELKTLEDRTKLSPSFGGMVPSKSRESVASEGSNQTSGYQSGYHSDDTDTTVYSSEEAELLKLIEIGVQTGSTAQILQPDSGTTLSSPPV
Chain of Gamma-aminobutyric acid receptor subunit alpha-1 (P62813 whole entry): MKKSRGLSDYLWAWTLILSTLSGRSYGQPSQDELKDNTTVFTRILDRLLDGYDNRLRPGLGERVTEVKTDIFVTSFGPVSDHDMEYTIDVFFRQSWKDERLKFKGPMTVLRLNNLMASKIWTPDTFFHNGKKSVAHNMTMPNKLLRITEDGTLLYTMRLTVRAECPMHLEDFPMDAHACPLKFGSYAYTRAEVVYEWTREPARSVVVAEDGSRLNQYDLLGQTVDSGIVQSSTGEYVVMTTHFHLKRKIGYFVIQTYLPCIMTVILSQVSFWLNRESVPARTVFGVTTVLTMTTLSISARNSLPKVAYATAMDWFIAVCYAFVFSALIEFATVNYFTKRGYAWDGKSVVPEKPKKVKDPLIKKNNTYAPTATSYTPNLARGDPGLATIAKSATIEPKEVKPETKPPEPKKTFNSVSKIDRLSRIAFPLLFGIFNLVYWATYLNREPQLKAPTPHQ
Chain of Mu-type opioid receptor (P35372 whole entry): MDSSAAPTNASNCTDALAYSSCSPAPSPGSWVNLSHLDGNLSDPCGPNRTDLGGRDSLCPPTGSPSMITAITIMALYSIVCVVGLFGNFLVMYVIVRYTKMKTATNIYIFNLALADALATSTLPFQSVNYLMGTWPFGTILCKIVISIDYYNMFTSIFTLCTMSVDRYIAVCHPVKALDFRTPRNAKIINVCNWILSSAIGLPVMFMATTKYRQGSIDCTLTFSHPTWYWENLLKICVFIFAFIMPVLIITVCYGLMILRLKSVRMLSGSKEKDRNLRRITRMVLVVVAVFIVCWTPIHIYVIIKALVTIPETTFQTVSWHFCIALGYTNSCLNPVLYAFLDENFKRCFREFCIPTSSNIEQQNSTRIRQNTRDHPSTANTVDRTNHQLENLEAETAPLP
Chain of Histamine H3 receptor (Q9Y5N1 whole entry): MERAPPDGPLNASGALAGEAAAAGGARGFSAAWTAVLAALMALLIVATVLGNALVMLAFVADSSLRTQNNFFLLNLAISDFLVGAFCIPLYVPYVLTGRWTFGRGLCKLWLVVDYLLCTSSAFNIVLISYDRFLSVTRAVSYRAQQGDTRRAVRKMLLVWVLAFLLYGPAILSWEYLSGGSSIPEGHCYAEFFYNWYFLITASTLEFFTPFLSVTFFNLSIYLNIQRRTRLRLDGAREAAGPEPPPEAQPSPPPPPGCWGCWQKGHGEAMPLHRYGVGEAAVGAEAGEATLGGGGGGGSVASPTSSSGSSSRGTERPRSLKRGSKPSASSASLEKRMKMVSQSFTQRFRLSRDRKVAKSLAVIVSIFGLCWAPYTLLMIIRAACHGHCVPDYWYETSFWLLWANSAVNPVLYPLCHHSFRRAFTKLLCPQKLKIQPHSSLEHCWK

Structure (SMILES): CNC[C@H](O)c1cccc(O)c1 [PHENYLEPHRINE]
- AC50 (Adenosine receptor A1): > 30 µM
- AC50 (Adenosine receptor A3): > 30 µM
- AC50 [1]: > 10 µM
- AC50 (D(1A) dopamine receptor): 3.13 µM
- AC50 [2]: > 10 µM
- AC50 [3]: > 30 µM
- AC50 [4]: > 10 µM
- AC50 [5]: > 30 µM
- AC50 (Melanocortin receptor 3): > 30 µM
- AC50 [6]: > 30 µM
- AC50 [7]: > 30 µM
- AC50 (Mu-type opioid receptor): > 10 µM
- AC50 (Histamine H3 receptor): > 10 µM
